Measurements taken from patent US20090149432A1, “METHODS FOR ADMINISTERING CORTICOSTEROID FORMULATIONS” (priority 2007, published 2009).
Like-named read-outs stand apart in the source and are kept apart here.

How the values were obtained:
[1] = Plasma budesonide pharmacokinetics in asthmatic children, twice a day nebulization over six weeks; type: in vivo, human (asthmatic children); conditions: for AUC0-inf (geometric mean): nebulized; for AUC0-inf (geometric mean) / Cmax (geometric mean) / Cmax at 42 days / Cmax / half-life at 42 days / Tmax at 42 days / half-life / Tmax: asthmatic children; for Cmax at 42 days / Cmax / half-life at 42 days / Tmax at 42 days / half-life / Tmax / Tmax at 6 weeks: human, plasma, inhaled; for Cmax at 42 days / Cmax: read-out: Cmax (geometric mean); for half-life at 42 days / half-life: read-out: T1/2 (geometric mean); for Tmax at 42 days / Tmax: read-out: Tmax (geometric mean) (converted); for Tmax at 6 weeks: read-out: Tmax averaged over 6 weeks (converted)
Procedure: The budesonide was administered twice a day by a nebulizer for six weeks (42 days). In one subset, budesonide was administered at a dose of 0.25 mg. In the other subset, budesonide was administered at a dose of 0.135 mg.
Tmaxs averaged about 4.3 minutes (SD±0.63 minutes) for the two dosage strengths and time of treatment that ranged from zero to six weeks. […] The Cmaxs and AUCs (area under the curve) obtained for the two different dosage strengths were below levels that would induce side effects due to systemic exposure. […] Murphy et al.'s dosing regimen of 1.0 mg twice a day (bid) was the same as that for Pulmicort Respules when the pharmacokinetics of Pulmicort Respules was being assessed by Astrazeneca (Pharmacokinetics section of Pulmicort Respules label insert).

[2] = system: hypothalamus-pituitary-adrenal (HPA) axis; assay: ACTH-induced plasma cortisol levels in children after six weeks of treatment; type: in vivo, human (children); conditions: doses of Tables 3 and 4
From the text: An important measure of systemic exposure to corticosteroids is the level of endogenous cortisols in the blood. Excess exogenous corticosteroids will suppress natural production of cortisols due to the suppression of the adrenal cortex. […] Both these changes are statistically insignificant.

With `CCCC1O[C@@H]2C[C@H]3[C@@H]4CCC5=CC(=O)C=C[C@]5(C)[C@H]4[C@@H](O)C[C@]3(C)[C@]2(C(=O)CO)O1` (some centres unmarked) [Budesonide, budesonide] the “AUC0-inf (geometric mean)” value ([1]; 0.135 mg dose twice a day, Day 42) was 22,071 pg-min/mL, the “AUC0-inf (geometric mean)” value ([1]; 0.135 mg dose twice a day, First Dose) was 10,238 pg-min/mL and the “change of AUC0-inf” value ([1]; 0.135 mg dose, by week six of dosing) was “more than doubled”. The “change of Cmax” value ([1]; 0.135 mg dose, initial dosing to week six) was “more than tripling”, the “Cmax (geometric mean)” value ([1]; 0.135 mg dose, Day 42) was 0.6721 ng/mL and the “Cmax (geometric mean)” value ([1]; 0.135 mg dose, First Dose) was 0.2144 ng/mL. For the same molecule, the “Cmax to AUC0-inf ratio” value ([1]; 0.135 mg dose, standard deviation less than approximately 0.006 min^−1) was “approximately 0.02 min^−1”, the “AUC0-inf (geometric mean)” value ([1]; 0.25 mg dose twice a day, Day 42) was 33,116 pg-min/mL and the “AUC0-inf (geometric mean)” value ([1]; 0.25 mg dose twice a day, Day 42, listed as budesonide) was “about 33,116 pg-min/mL”. For the same molecule, the “AUC0-inf (geometric mean)” value ([1]; 0.25 mg dose twice a day, First Dose) was 20,849 pg-min/mL, the “AUC0-inf (geometric mean)” value ([1]; 0.25 mg dose twice a day, First Dose, listed as budesonide) was “about 20,849 pg-min/mL” and the “Cmax to AUC0-inf ratio” value ([1]; 0.25 mg dose, standard deviation less than approximately 0.007 min^−1) was “approximately 0.025 min^−1”. The “change of Cmax” value ([1]; 0.25 mg, after 42 days (six weeks) of dosing) was “at least double”, the “increase of AUC0-inf, times its value at first dose” value ([1]; 0.25 mg, repeat dosing for six weeks) was “about 1.6 times” and the Cmax at 42 days ([1]; 0.135 mg, Day 42) was roughly 0.672 ng/mL. It also gave a Cmax ([1]; 0.135 mg, First Dose) of roughly 0.214 ng/mL, a Cmax at 42 days ([1]; 0.25 mg, Day 42) of 0.746 ng/mL and a Cmax ([1]; 0.25 mg, First Dose) of 0.321 ng/mL. It also gave a half-life at 42 days ([1]; 0.135 mg dose, Day 42) of 71.3 min, a Tmax at 42 days ([1]; 0.135 mg dose, Day 42) of 4.4 min and a half-life ([1]; 0.135 mg dose, First Dose) of 42.1 min. The Tmax ([1]; 0.135 mg dose, First Dose) was 4.4 min, the Tmax at 6 weeks ([1]; 0.135 mg dose) was 4.4 min and the half-life at 42 days ([1]; 0.25 mg dose, Day 42) was 75.7 min. The Tmax at 42 days ([1]; 0.25 mg dose, Day 42) was 5 min, the half-life ([1]; 0.25 mg dose, First Dose) was 155 min and the Tmax ([1]; 0.25 mg dose, First Dose) was 3.3 min. The Tmax at 6 weeks ([1]; 0.25 mg dose) was 4.1 min and the HPA axis suppression [2] was “no evidence of hypothalamus-pituitary-adrenal (HPA) axis suppression”.
